Test results from patent publication US20090196871A1, “USE OF 4-PYRIDYLMETHYLPHTHALAZINES FOR CANCER TREATMENT” (priority 2001, published 2009).

Assays:
[1] = system: metastatic colorectal cancer; assay: Example 1: combination with oxaplatin/folinic acid/5-fluorouracil chemotherapy in patients; assay type: in vivo, human
Experimental: 15 Patients with histologically confirmed metastatic colorectal cancer seven of which had previously received adjuvant chemotherapy are treated with a combination of 1-(4-chloro-anilino)-4-(4-pyridylmethyl)phthalazine and a chemotherapy regimen. The chemotherapy regimen is 85 mg/m^2 of oxaplatin on day 1, 200 mg/m^2 of folinic acid given as a 2 hour infusion on days 1 and 2, and S-fluorouracil administered as a bolus at a dose of 400 mg/m^2 followed by 600 mg/m^2 over 22 hours on days 1 and 2. The chemotherapy regimen is given every 14 days. […] The treatment is well-tolerated. […] Stable diseases are observed in 2 patients, minor responses in 3 patients and partial responses in 8 patients.

[2] = system: tumor vascular permeability; assay: Studies in humans (general statement); design: species or system human; conditions: in vivo
clinical [3] = conditions: human, in vivo, po
[4] = Example 3: pharmacokinetic study, twice-daily dosing
Experimental: (§1) The patients are monitored by dynamic contrast enhanced magnetic resonance imaging (DCE-MRI) of tumors to provide a measure of the bi-dimensional transfer constant (Ki) prior to treatment, on day 2 and after every 28 day cycle. In addition, tumor volume is measured by magnetic resonance imaging every 28 days, and full pharmacokinetic profiles are obtained on days 1 and 28.

clinical [5] = conditions: human, plasma, po
advanced solid tumors [6] = assay: Example 4: once-daily oral dosing, Phase I, DCE-MRI, plasma VEGF, toxicity
advanced solid tumors [7] = assay: Example 3: twice-daily oral dosing, safety and DCE-MRI of tumors
Experimental: as §1

[8] = system: metastatic renal cell carcinoma; assay: Example 2: once-daily oral monotherapy in patients; assay type: in vivo, human; conditions: 300, 750 or 1000 mg/day once a day orally
Experimental: Ten patients having metastatic renal cell carcinoma, six of which had previous biologic therapy, are treated with 300, 750 or 1000 mg/day of 1-(4-chloroanilino)-4-(4-pyridyl-methyl)phthalazine administered once a day orally. Seven of the ten patients maintain stable disease for a median of 3 months.

[9] = combination with chemotherapy, of 15 patients
[10] = among patients on 300, 500 and 1000 mg daily doses, twice daily

Tmax (clinical [3]): 1 to 2.5 h
decrease of systemic exposure (AUC) at steady-state compared to day 1 (clinical [3]): approximately 30%
dose up to which dose proportional increase in exposure is observed (clinical [3]): up to 1000 mg/day
half-life (clinical [3]): 3 to 6 h
area under the curve (AUC) ([4]; 300 mg total daily dose): 82 ng·mL·h
area under the curve (AUC) ([4]; 500 mg total daily dose): 46 ng·mL·h
area under the curve (AUC) ([4]; 1000 mg total daily dose): 370 ng·mL·h
AUC (clinical [5]): ~114 µM·h
Compound: Clc1ccc(Nc2nnc(Cc3ccncc3)c3ccccc23)cc1
minor responses observed [1, 9]: 3 patients
partial responses observed [1, 9]: 8 patients
stable diseases observed [1, 9]: 2 patients
tolerability of the treatment ([1]; combined with oxaplatin, folinic acid, 5-fluorouracil every 14 days, 500, 1000 or 2000 mg/day single daily dose, 15 patients): well-tolerated
effect on tumor vascular permeability in humans [2]: reduce tumor vascular permeability
tolerability in humans [2]: well tolerated
reduction in Ki (DCE-MRI) associated with non-progressive disease (advanced solid tumors [6]; colorectal cancer patients with liver metastasis): 50-60%
rise in plasma VEGF levels (advanced solid tumors [6]; responders at doses >1000 mg/day, within the first 28 days of treatment): up to 5 fold
dose-limiting toxicity (advanced solid tumors [6]; up to 2000 mg/day once daily): No dose-limiting toxicity
grade 1 lethargy (advanced solid tumors [7]; [10]): one
grade 2 lightheadedness (advanced solid tumors [7]; [10]): 4 patients
transient grade 3 elevations of liver transaminases (advanced solid tumors [7]; [10]): 2 patients
biological effect indicated by the study data (advanced solid tumors [7]; twice daily oral): reducing tumor perfusion/vascular permeability and slowing tumor growth
tolerability / drug-related SAEs (advanced solid tumors [7]; twice daily oral, total daily doses 300-2000 mg): well tolerated with no drug-related SAEs
median duration of stable disease [8]: 3 months
patients maintaining stable disease ([8]; of ten patients): Seven
